In patent US10787453B2, “Octahydropyrrolopyrroles their preparation and use” (The Trustees of Columbia University in the City of New York, priority 2013, dated 2020):

Key:
[1] = test system: wild-type and Abca4−/− mice; assay: Efficacy in a mammalian model; format: in vivo, mouse; settings: orally dosed for 3 weeks at 30 mg/kg
Protocol: The effectiveness of the compounds listed in Example 1-46 are tested in wild-type and Abca4−/− mice. The Abca4−/− mouse model manifests accelerated accumulation of lipofuscin in the RPE and is considered a pre-clinical efficacy model for a drug reducing lipofuscin accumulation. Compounds are orally dosed for 3 weeks at 30 mg/kg. There is a reduction in the serum RBP4 level in treated animals. The levels of A2E/isoA2E and other bisretinoids are reduced in treated mice.
The effectiveness of the octahydropyrrolopyrroles 66 and 67 are tested in wild-type and Abca4−/− mice. The Abca4−/− mouse model manifests accelerated accumulation of lipofuscin in the RPE and is considered a pre-clinical efficacy model for a drug reducing lipofuscin accumulation. Compounds are orally dosed for 3 weeks at 30 mg/kg. There is a reduction in the serum RBP4 level in treated animals. The levels of A2E/isoA2E and other bisretinoids are reduced in treated mice.
The effectiveness of the octahydropyrrolopyrroles of the present invention are tested in wild-type and Abca4−/− mice. The Abca4−/− mouse model manifests accelerated accumulation of lipofuscin in the RPE and is considered a pre-clinical efficacy model for a drug reducing lipofuscin accumulation. Compounds are orally dosed for 3 weeks at 30 mg/kg. There is a reduction in the serum RBP4 level in treated animals. The levels of A2E/isoA2E and other bisretinoids are reduced in treated mice.

[2] = target: T1, RBP4 (Homo sapiens (Human), UniProt P02753); assay: Scintillation proximity RBP4 binding assay (SPA); settings: for IC50: 10 nM 3H-Retinol, 50 nM biotinylated RBP4
Protocol: Scintillation Proximity RBP4 Binding Assay
Untagged human RBP4 purified from urine of tubular proteinuria patients was purchased from Fitzgerald Industries International. It was biotinylated using the EZ-Link Sulfo-NHS-LC-Biotinylation kit from Pierce following the manufacturer's recommendations. Binding experiments were performed in 96-well plates (OptiPlate, PerkinElmer) in a final assay volume of 100 μl per well in SPA buffer (1×PBS, pH 7.4, 1 mM EDTA, 0.1% BSA, 0.5% CHAPS). The reaction mix contained 10 nM ^3H-Retinol (48.7 Ci/mmol; PerkinElmer), 0.3 mg/well Streptavidin-PVT beads, 50 nM biotinylated RBP4 and a test compound. Nonspecific binding was determined in the presence of 20 μM of unlabeled retinol. The reaction mix was assembled in the dark under dim red light. The plates were sealed with clear tape (TopSeal-A: 96-well microplate, PerkinElmer), wrapped in the aluminum foil, and allowed to equilibrate 6 hours at room temperature followed by overnight incubation at +4° C. Radiocounts were measured using a TopCount NXT counter (Packard Instrument Company).

[3] = target: T2, RBP4-TTR interaction (Homo sapiens (Human), UniProt P02753); assay: TR-FRET (HTRF) assay for retinol-induced RBP4-TTR interaction; format: biochemical; settings: for IC50: in the presence of 1 μM retinol, read-out: HTRF assay for antagonists of RBP4-TTR interaction IC50
Excerpt: TR-FRET Assay for Retinol-Induced RBP4-TTR Interaction
Binding of a desired RBP4 antagonist displaces retinol and induces hindrance for RBP4-TTR interaction resulting in the decreased FRET signal (FIG. 7). Bacterially expressed MBP-RBP4 and untagged TTR were used in this assay. For the use in the TR-FRET assay the maltose binding protein (MBP)-tagged human RBP4 fragment (amino acids 19-201) was expressed in the Gold(DE3)pLysS E. coli strain (Stratagene) using the pMAL-c4x vector. Following cell lysis, recombinant RBP4 was purified from the soluble fraction using the ACTA FPLC system (GE Healthcare) equipped with the 5-ml the MBP Trap HP column. Human untagged TTR was purchased from Calbiochem. Untagged TTR was labeled directly with Eu^3+ Cryptate-NHS using the HTRF Cryptate Labeling kit from CisBio following the manufacturer's recommendations. HTRF assay was performed in white low volume 384 well plates (Greiner-Bio) in a final assay volume of 16 μl per well. The reaction buffer contained 10 mM Tris-HCl pH 7.5, 1 mM DTT, 0.05% NP-40, 0.05% Prionex, 6% glycerol, and 400 mM KF. Each reaction contained 60 nM MBP-RBP4 and 2 nM TTR-Eu along with 26.7 nM of anti-MBP antibody conjugated with d2 (Cisbio). Titration of test compounds in this assay was conducted in the presence of 1 μM retinol. All reactions were assembled in the dark under dim red light and incubated overnight at +4° C. wrapped in aluminum foil. TR-FRET signal was measured in the SpectraMax M5e Multimode Plate Reader (Molecular Device). Fluorescence was excited at 337 nm and two readings per well were taken: Reading 1 for time-gated energy transfer from Eu(K) to d2 (337 nm excitation, 668 nm emission, counting delay 75 microseconds, counting window 100 microseconds) and Reading 2 for Eu(K) time-gated fluorescence (337 nm excitation, 620 nm emission, counting delay 400 microseconds, counting window 400 microseconds). The TR-FRET signal was expressed as the ratio of fluorescence intensity: Flu665/Flu620×10,000.

[4] = test system: Abca4−/− mice; settings: cited from earlier work
[5] = target: T1, RBP4; settings: cited from earlier work
[6] = test system: serum RBP4 and retinol; settings: in vivo; cited from earlier work
[7] = target: T2, RBP4-TTR interaction; settings: cited from earlier work
[8] = test system: mice; settings: cited from earlier work
[9] = test system: retinal pigment epithelium cells; settings: many cell types, including retinal pigment epithelium cells; cited from earlier work

Structure (SMILES)	levels of A2-DHP-PE and atRAL di-PE [1]	levels of A2E/isoA2E and other bisretinoids [1]	serum RBP4 level [1]	RBP4 binding (SPA), in words [2]	IC50 [2] [nM]	antagonism of retinol-dependent RBP4-TTR interaction (HTRF), in words [3]	IC50 [3] [nM]	A2E production [4]	binding to RBP4 [5]	displacement of all-trans retinol from RBP4 [5]	ocular all-trans retinol uptake [6]	serum RBP4 and retinol [6]	RBP4-TTR interaction [7]	formation of hemangiosarcomas [8]	induction of apoptosis [9]
Cc1cc(C(=O)O)nc(N2C[C@@H]3CN(c4ccccc4C(F)(F)F)C[C@@H]3C2)n1 [Compound 67, 6-Methyl-2-((3aR,6aS)-5-(2-(trifluoromethyl)phenyl)hexahydropyrrolo[3,4-c]pyrrol-2(1H)-yl)pyrimidine-4-carboxylic Acid]	also reduced	reduced	reduction	–	–	–	–	–	–	–	–	–	–	–	–
Cc1ccc2nnc(C(=O)N3C[C@@H]4CN(c5ccccc5C(F)(F)F)C[C@@H]4C3)n2c1 [Compound 65, (6-Methyl-[1,2,4]triazolo[4,3-a]pyridin-3-yl)((3aR,6aS)-5-(2-(trifluoromethyl)phenyl)hexahydropyrrolo[3,4-c]pyrrol-2 (1H)-yl)methanone]	–	–	–	binded to RBP4	1.68	antagonized retinol-dependent RBP4-TTR interaction	20.8	–	–	–	–	–	–	–	–
CC1=C(/C=C/C(C)=C/C=C/C(C)=C/C(=O)Nc2ccc(O)cc2)C(C)(C)CCC1 [fenretinide, N-(4-hydroxy-phenyl)retinamide]	–	–	–	–	–	–	–	reduced A2E production	bind to RBP4	displace all-trans retinol from RBP4	inhibit ocular all-trans retinol uptake	reduce serum RBP4 and retinol	disrupt the RBP4-TTR interaction	stimulate formation of hemangiosarcomas	extremely active inducer of apoptosis
COC(=O)c1cc(C)nc(N2C[C@@H]3CN(c4ccccc4C(F)(F)F)C[C@@H]3C2)n1 [Compound 66, Methyl 6-methyl-2-((3aR,6aS)-5-(2-(trifluoromethyl)phenyl)hexahydropyrrolo[3,4-c]pyrrol-2(1H)-yl)pyrimidine-4-carboxylate]	also reduced	reduced	reduction	binded to RBP4	3.9	antagonized retinol-dependent RBP4-TTR interaction	74	–	–	–	–	–	–	–	–
